Source: patent EP0367671B1, “Novel beta-D-phenylthioxylosides, their method of preparation and their use as pharmaceuticals” (FOURNIER INDUSTRIE ET SANTE, priority 1988, dated 1990)

What follows are compounds tested on venous thrombosis (assay: venous thrombosis protocol (venous stasis under hypercoagulation with activated factor X, Wessler technique; thrombus removed and weighed)). Settings: Rattus norvegicus, po; 12.5 mg/kg p.o., suspension in PEG 400; thrombosis induced 4 hours after treatment; unfasted male Wistar rats.
Format: in vivo
Protocol: A venous stasis is produced under hypercoagulation according to the technique described by WESSLER et al. (J. Applied Physiol. 1959, p. 943-946). As in the technique described by J. HAUPMAN et al. (Thrombosis and Haemostasis 43 (2) 1980, p. 118), the hypercoagulant used is a solution of activated factor X (Xa) supplied by the company Flow Laboratories (71 Knat per 12.5 ml of physiological serum).
The study is performed on unfasted male Wistar rats weighing 250 to 280 g and divided up into groups of 10 animals each. The test products are administered orally as a suspension in PEG 400. A thrombosis is induced 4 hours after this treatment and the thrombus formed is removed and weighed.
The results obtained at a dose of 12.5 mg/kg p.o. have been collated in Table I. The results obtained with the known products of the above-mentioned prior art have also been collated in this Table.

Point of comparison: `N#Cc1cccc(C(O)c2ccccc2S[C@@H]2SC[C@@H](O)[C@H](O)[C@H]2O)c1` (stereo partly drawn) [Example 7, (2-(3-cyanophenylhydroxymethyl)phenyl)-1,5-dithio-β-D-xylopyranoside], inhibition in vivo at 12.5 mg/kg 54%. Against it:
- N#Cc1ccc(S[C@@H]2SC[C@@H](O)[C@H](O)[C@H]2O)c(C(=O)c2ccccc2)c1 [Example 1, (2-benzoyl-4-cyanophenyl)-1,5-dithio-β-D-xylopyranoside] — higher, 69%
- CC(=O)O[C@@H]1[C@@H](OC(C)=O)[C@H](Sc2ccc(C#N)cc2C(=O)c2ccccc2)SC[C@H]1OC(C)=O [Example 1a, (2-benzoyl-4-cyanophenyl)-2,3,4-tri-O-acetyl-1,5-dithio-β-D-xylopyranoside] — lower, 43.8%
- N#Cc1ccc(S[C@@H]2SC[C@@H](O)[C@H](O)[C@H]2O)c(C(O)c2ccccc2)c1 (stereo partly drawn) [Example 2, (4-cyano-2-phenylhydroxymethylphenyl)-1,5-dithio-β-D-xylopyranoside] — higher, 61%
- O=C(c1ccccc1)c1ccccc1S[C@@H]1SC[C@@H](O)[C@H](O)[C@H]1O [Example 3, (2-benzoylphenyl)-1,5-dithio-β-D-xylopyranoside] — lower, 4%
- N#Cc1ccc(C(=O)c2ccccc2S[C@@H]2SC[C@@H](O)[C@H](O)[C@H]2O)cc1 [Example 4, (2-(4-cyanobenzoyl)phenyl)-1,5-dithio-β-D-xylopyranoside] — higher, 88%
- N#Cc1ccc(C(O)c2ccccc2S[C@@H]2SC[C@@H](O)[C@H](O)[C@H]2O)cc1 (stereo partly drawn) [Example 5, (2-(4-cyanophenylhydroxymethyl)phenyl)-1,5-dithio-β-D-xylopyranoside] — higher, 62%
- N#Cc1cccc(C(=O)c2ccccc2S[C@@H]2SC[C@@H](O)[C@H](O)[C@H]2O)c1 [Example 6, (2-(3-cyanobenzoyl)phenyl)-1,5-dithio-β-D-xylopyranoside] — higher, 59%
- N#Cc1ccccc1C(=O)c1ccccc1S[C@@H]1SC[C@@H](O)[C@H](O)[C@H]1O [Example 8, (2-(2-cyanobenzoyl)phenyl)-1,5-dithio-β-D-xylopyranoside] — higher, 57%
- N#Cc1ccc(C(=O)c2cc(C(F)(F)F)ccc2S[C@@H]2SC[C@@H](O)[C@H](O)[C@H]2O)cc1 [Example 9, (2-(4-cyanobenzoyl)-4-trifluoromethylphenyl)-1,5-dithio-β-D-xylopyranoside] — higher, 56.5%
- N#Cc1ccc(C(O)c2cc(C(F)(F)F)ccc2S[C@@H]2SC[C@@H](O)[C@H](O)[C@H]2O)cc1 (stereo partly drawn) [Example 10, (2-(4-cyanophenylhydroxymethyl)-4-trifluoromethylphenyl)-1,5-dithio-β-D-xylopyranoside] — higher, 61%
